Values of other authors as cited in US20070020197A1, “Preparation of pharmaceutical compositions containing nanoparticles” (WARNER-LAMBERT COMPANY LLC, priority 2004, published 2007).

Details: mean particle size reduced from 4.15 μm to 0.45 μm

bioavailability change: doubling
SMILES: O=C(NC(=O)c1ccccc1[N+](=O)[O-])Nc1ccc(Oc2ncc(Br)cn2)c(Cl)c1 [HO-221]
